Assay results: patent publication US8796302B2 (priority 2004, dated 2014)

Columns and labels:
[1] = system: microglia in neuron-glia cultures; assay: OX-42 immunostaining of LPS-induced microglial activation; format: cell-based, rat; conditions: for LPS-induced activation of microglia (OX-42): LPS 5 ng/ml, 12 h
Method: Dopaminergic neurons were recognized with the anti-TH antibody and microglia were detected with the OX-42 antibody, which recognizes the CR3 receptor. This was accomplished as follows: 3.7% formaldehyde-fixed cultures were treated with 1% hydrogen peroxide for about 10 minutes followed by sequential incubation with a blocking solution (30 min), primary antibody (overnight, 4° C.), biotinylated secondary antibody (2 hours), and ABC reagents (40 min). The color was developed with 3,3′-diaminobenzidine.
Neuron-glia cultures were prepared and treated with vehicle, LPS (5 ng/ml), or LPS plus DM respectively as in Example 1. Twelve hours later, cultures were immunostained with anti-OX-42 antibody. Images shown are representative of three separate experiments. The immunostaining and morphological analysis was accomplished as in Example 2.
Mesencephalic neuron-glia cultures were pretreated with VPA for 48 h and then treated with 20 ng/ml LPS for 72 h, as described in Example 19. Immunostaining with an antibody against OX-42 was then performed, as described in Example 19.

[2] = system: TNFα; assay: TNFα release (ELISA) after LPS; format: cell-based, rat
Method: Different pro-inflammatory factors that are released from microglia were also monitored. The production of NO was determined by measuring the accumulated levels of nitrite in the supernatant with the Griess reagent, and release of TNFα was measured with a rat TNFα enzyme-linked immunosorbent assay kit from R & D System (Minneapolis, Minn.).
Mesencephalic neuron-glia cultures were pretreated with VPA or vehicle control for 48 hours prior to stimulation with 20 ng/ml LPS. The release of TNF-α was determined 3 hours after LPS treatment. The release of TNFα, was measured with a rat TNFα enzyme-linked immunosorbent assay kit from R & D System (Minneapolis, Minn.).

[3] = system: dopaminergic neurons in rat primary mesencephalic neuron-glia cultures; assay: [3H]DA uptake in LPS-treated mesencephalic neuron-glia cultures; format: cell-based; conditions: LPS 10 ng/ml, 7 days; for LPS-induced decrease in [3H]-dopamine uptake: 30 min pretreatment
Method: Neuron-glia cultures were prepared from the ventral mesencephalic tissues of embryonic day 13-14 Fisher F344 rats or day 12-13 wild-type C57BL/6J (gp91phox^+/+) mice. Dissociated cells were seeded at 1×10^5/well and 5×10^5/well to poly-D-lysine-coated 96-well and 24-well plates, respectively. Cells were maintained at about 37° C. in a humidified atmosphere of 5% CO2 and 95% air, in minimal essential medium (MEM) containing 10% fetal bovine serum (FBS), 10% horse serum (HS), 1 gm/l glucose, 2 mM L-glutamine, 1 mM sodium pyruvate, 100 μM nonessential amino acids, 50 U/ml penicillin, and 50 μg/ml streptomycin. Seven-day-old cultures were used for treatment.
Dextromethorphan (obtained from Sigma-Aldrich (St. Louis, Mo.) as dextromethorphan hydrobromide) was freshly prepared as a stock solution (1 mM) in ddH2O and sterile-filtered right before use. For treatment of the cultures, the DM was serially diluted (10×) with fresh culture medium containing 2% of fetal bovine and horse serum. The neuron-glia cultures were pretreated with 10^−5-10^−17M DM 30 minutes prior to treatment with 10 ng/ml of LPS.
Seven days after treatment, the degeneration of dopaminergic neurons was assessed by [^3H]-dopamine (DA) uptake assays. The [^3H]-DA uptake assays were performed as follows. Cultures were washed twice with warm Krebs-Ringer buffer (KRB, 16 mM sodium phosphate, 119 mM NaCl, 4.7 mM KCl, 1.8 mM CaCl2, 1.2 mM MgSO4, 1.3 mM EDTA, and 5.6 mM glucose; pH7.4) and then incubated for about 20 minutes at about 37° C. with 1 μM [^3H]-DA in KRB in order to allow for the uptake of DA. Afterwards, the cultures were washed (three times) with ice-cold KRB and the cells were collected in 1 N NaOH. Radioactivity was determined by liquid scintillation counting.
This example tests whether or not post-treatment with DM is still neuroprotective in LPS-induced neurotoxicity. Neuron-glia co-cultures as prepared in Example 1 were first treated with LPS (20 ng/ml) for twelve hours, and then LPS was removed by removing the media from the cultures and washing twice with PBS. Different concentrations of DM (10^−5, 10^−10, and 10^−14 M) were then added to the cultures and incubation was continued for another 6 or 7 days. The DA uptake and the superoxide production were measured as in Example 1 and 5.
Neuron-glia cell cultures were prepared as in Example 1, and pretreated with the various peptide fragments of Table 1 (peptide fragments were obtained from BACHEM) for 30 minutes followed by addition of 5 ng/ml of LPS. DA neurotoxicity was measured as an Example 1 at 7 days post treatment.
DA neurotoxicity was measured at 7 days post treatment as in Example 1. Dopaminergic neuronal death was determined at 7 days post treatment using immunocytochemical staining as in Example 2.
Neuron-glia cultures were prepared from the ventral mesencephalic tissues of embryonic day 13-14 rats. Dissociated cells were seeded at 1×10^5/well and 5×10^5/well to poly-D-lysine-coated 96-well and 24-well plates, respectively.

[4] = system: dopaminergic neurons in mesencephalic neuron-enriched cultures; assay: [3H]DA uptake in Aβ- or MPP+-treated neuron-enriched cultures; format: cell-based, rat
Method: Neuron-enriched culture were prepared from the ventral mesencephalic tissues of embryonic day 13-14 Fisher F344 rats (Charles River Laboratories, Raleigh, N.C.) as follows. Dissociated cells were seeded at 1×10^5/well in 96-well and 5×10^5/well to poly-D-lysine-coated 96-well and 24-well plates, respectively. Glial proliferation was suppressed by the inclusion of cytosine β-D-arabinocide (5-10 μM). Seven day old cultures were used for treatment, which were composed of 91% neurons, 9% astrocytes, and <0.1% microglia. The cultures were pre-treated with OM, 10^−5 M, 10^−10 M, and 10^−14M DM 30 minutes before treatment with vehicle alone, 4 μM Aβ or 0.5 μM MPP^+5 as in Example 1. DA uptake was also measured as in Example 1 and the results are expressed in both FIGS. 4A and B as a percentage of the control cultures and are the mean±S.E.M. of four individual experiments with triplicates in each experiment. […]
Neuron-enriched cultures seeded in 24-well culture plates were pretreated for 48 hours with 0.6 mM VPA followed by treatment with 0.5 μM MPP^+. [^3H]DA uptake was measured 7 days after MPP^+ treatment according to procedures described in Example 1. Results are expressed as mean±SEM of percentage of vehicle control from three independent experiments performed in duplicate. *,p<0.05 compared with vehicle-treated cultures. †, p<0.05 compared with corresponding MPP^+-treated cultures.

`COc1ccc2c(c1)[C@@]13CCCC[C@H]1[C@@H](C2)N(C)CC3` [DM, d-3-methoxy-N-methylmorphinan] was tested, and the “LPS-induced activation of microglia (OX-42)” value ([1]; DM 10^−5 M and 10^−14 M) was “prevented the LPS-induced activation of microglia”, the “LPS-induced activation of microglia (OX-42)” value ([1]; DM 10^−10 M) was “didn't significantly inhibit microglia activation” and the “LPS-induced increase in the release of TNFα” value ([2]; DM 10^−5 M and 10^−14 M pretreatment) was “significantly decreased”. The “LPS-induced increase in the release of TNFα” value ([2]; DM 10^−10 M pretreatment) was “no significant reduction”, the “LPS-induced decrease in [3H]-dopamine uptake” value ([3]; DM 10^−5 and 10^−6 M) was “attenuated the LPS-induced decrease” and the “LPS-induced decrease in [3H]-dopamine uptake” value ([3]; DM 10^−8 to 10^−12 M) was “no protective effects”. For the same molecule, the “Aβ (1-42)-induced reduction of DA uptake” value ([4]; DM 10^−5, 10^−10, 10^−14 M, Aβ (1-42) 4 μM, 9 days, neuron-enriched) was “did not significantly alter”.
In the case of `Oc1ccc2c(c1)[C@@]13CCCC[C@H]1[C@@H](C2)NCC3` [3-HM, 3-hydroxymorphinan], the “LPS-induced reduction in DA uptake” value ([3]; 3-HM 1-5 μM pretreatment) is reported as “significantly attenuated the LPS-induced reduction in DA uptake”.
`CCCC(CCC)C(=O)O` [VPA, Valproic acid] was tested, and the “LPS-stimulated activation of microglia (OX-42)” value ([1]; VPA 0.4 or 0.6 mM, 48 h pretreatment, LPS 20 ng/ml 72 h) was “suppressed”, the “microglia activation (OX-42), VPA alone” value ([1]; VPA alone) was “did not show significant effects on microglia activation” and the “LPS-induced TNFα production” value ([2]; VPA 0.2 mM, 48 h pretreatment, 3 h after LPS 20 ng/ml) was “significant inhibited”. The “LPS-induced production of TNFα” value ([2]; VPA 0.4 or 0.6 mM, 48 h pretreatment, 3 h after LPS 20 ng/ml) was “completely blocked” and the “MPP+-induced degeneration of DA neurons (DA uptake)” value ([4]; VPA 0.6 mM, 48 hours pretreatment, MPP+ 0.5 μM, 7 days) was “blocked”.
